Assay results as given in ChEMBL document CHEMBL1201862, “PubChem BioAssay data set” (2004).
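All cell lines were grown in 96-well plates and treated with compound for 48 hours. Here, GI50 denotes the concentration required for 50% inhibition of growth.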 Active and inactive are the calls of the source. Cut-off read from the data, not from the text of the source: active = GI50 up to about 1.1 µM and inactive = higher.

Legend:
Experiment in all cases: DTP human tumour cell line panel, 48 h
[1] = test system: NCI-H460
[2] = test system: UO-31
[3] = test system: SK-MEL-5
[4] = test system: OVCAR-3
[5] = test system: A498
[6] = test system: ACHN
[7] = test system: SK-MEL-28
[8] = test system: LOX IMVI
[9] = test system: SN12C
[10] = test system: TK-10
[11] = test system: LXFL 529
[12] = test system: OVCAR-8
[13] = test system: UACC-62
[14] = test system: SNB-75
[15] = test system: SF-268
[16] = test system: HOP-92
[17] = test system: Hs-578T
[18] = test system: MDA-N
[19] = test system: PC-3
[20] = test system: DU-145

| Compound | GI50 [1] | GI50 [2] | GI50 [3] | GI50 [4] | GI50 [5] | GI50 [6] | GI50 [7] | GI50 [8] | GI50 [9] | GI50 [10] | GI50 [11] | GI50 [12] | GI50 [13] | GI50 [14] | GI50 [15] | GI50 [16] | GI50 [17] | GI50 [18] | GI50 [19] | GI50 [20] |
| --- | --- | --- | --- | --- | --- | --- | --- | --- | --- | --- | --- | --- | --- | --- | --- | --- | --- | --- | --- | --- |
| CN1C(=O)C(C)(C)NS1(=O)=O | > 100 µM (inactive) | > 100 µM (inactive) | > 100 µM (inactive) | > 100 µM (inactive) | > 100 µM (inactive) | > 100 µM (inactive) | > 100 µM (inactive) | > 100 µM (inactive) | > 100 µM (inactive) | > 100 µM (inactive) | > 100 µM (inactive) | > 100 µM (inactive) | > 100 µM (inactive) | > 100 µM (inactive) | > 100 µM (inactive) | – | – | – | – | – |
| CCc1cccc(C)c1NC(=O)C(=O)Cc1nc2ccccc2s1 | > 100 µM (inactive) | > 100 µM (inactive) | > 100 µM (inactive) | > 100 µM (inactive) | > 100 µM (inactive) | > 100 µM (inactive) | > 100 µM (inactive) | – | > 100 µM (inactive) | > 100 µM (inactive) | > 100 µM (inactive) | > 100 µM (inactive) | > 100 µM (inactive) | > 100 µM (inactive) | > 100 µM (inactive) | 0.47 µM (active) | – | – | – | – |
| O=c1[nH]nc(Cc2ccc(Cl)cc2)n1/N=C\CC/C=N\n1c(Cc2ccc(Cl)cc2)n[nH]c1=O | > 100 µM (inactive) | > 100 µM (inactive) | 47.3 µM (inactive) | > 100 µM (inactive) | > 69.5 µM (inactive) | 56 µM (inactive) | 23.6 µM (inactive) | 13.6 µM (inactive) | 59.2 µM (inactive) | > 100 µM (inactive) | – | 14 µM (inactive) | 10.9 µM (inactive) | 7.96 µM (inactive) | 13.5 µM (inactive) | > 55.5 µM (inactive) | 11.4 µM (inactive) | > 50.9 µM (inactive) | > 51.9 µM (inactive) | > 93.1 µM (inactive) |
| C#CC1(O)CCC2C3CCc4cc(Oc5nc(F)nc(-c6c7ccccc7c7sc8ccccc8n67)n5)ccc4C3CC[C@@]21C (some centres undefined) | > 100 µM (inactive) | > 100 µM (inactive) | > 100 µM (inactive) | > 100 µM (inactive) | – | > 100 µM (inactive) | > 100 µM (inactive) | – | – | > 100 µM (inactive) | > 100 µM (inactive) | > 100 µM (inactive) | > 100 µM (inactive) | 22.1 µM (inactive) | > 100 µM (inactive) | > 100 µM (inactive) | – | – | – | – |
| O=C1CN(C(=O)c2ccccc2)Cc2[nH]c3ccccc3c21 | > 100 µM (inactive) | > 100 µM (inactive) | > 100 µM (inactive) | > 100 µM (inactive) | – | > 100 µM (inactive) | > 100 µM (inactive) | > 100 µM (inactive) | > 100 µM (inactive) | > 100 µM (inactive) | > 100 µM (inactive) | > 100 µM (inactive) | > 100 µM (inactive) | > 100 µM (inactive) | – | > 100 µM (inactive) | – | – | – | – |
| O=c1cc(/C=C/c2ccc(O)c(O)c2)cc(/C=C/c2ccc(O)c(O)c2)o1 | 14.3 µM (inactive) | 4.22 µM (inactive) | 8.59 µM (inactive) | 7.71 µM (inactive) | 11 µM (inactive) | 5.85 µM (inactive) | 16.4 µM (inactive) | 15.7 µM (inactive) | 9.71 µM (inactive) | 17.5 µM (inactive) | – | 18.6 µM (inactive) | 8.39 µM (inactive) | 10.5 µM (inactive) | 5.86 µM (inactive) | 15.2 µM (inactive) | 8.05 µM (inactive) | 11.6 µM (inactive) | 9.16 µM (inactive) | 9.23 µM (inactive) |
| c1cncc(C2N3CCCCC3[C@@H]3c4[nH]c5ccccc5c4CCN23)c1 (some centres undefined) | > 100 µM (inactive) | > 100 µM (inactive) | > 100 µM (inactive) | > 100 µM (inactive) | > 100 µM (inactive) | > 100 µM (inactive) | > 100 µM (inactive) | – | > 100 µM (inactive) | > 100 µM (inactive) | > 100 µM (inactive) | > 100 µM (inactive) | 47.6 µM (inactive) | > 100 µM (inactive) | > 100 µM (inactive) | > 100 µM (inactive) | – | – | – | – |
| Nc1nc(F)nc2c1ncn2C1OC(CO)C(O)C1O (centres undefined) | 73.1 µM (inactive) | 11.1 µM (inactive) | 55.5 µM (inactive) | > 100 µM (inactive) | > 60.3 µM (inactive) | 34 µM (inactive) | > 77.3 µM (inactive) | 48.2 µM (inactive) | 3.89 µM (inactive) | > 100 µM (inactive) | – | 4.61 µM (inactive) | 58.6 µM (inactive) | > 100 µM (inactive) | > 61.7 µM (inactive) | 8.79 µM (inactive) | > 100 µM (inactive) | > 58.6 µM (inactive) | 30.5 µM (inactive) | 15.7 µM (inactive) |
